Results taken from US20190031676A1, “ANTIBACTERIAL ANNULATED PYRROLIDIN-2-ONE DERIVATIVES” (priority 2015, published 2019).
Values after ≈ are worked out from the molar mass of the structure shown. Where two headings read alike, the source gives them in different places.

Key:
Type in all cases: cell-based
[1] = system: wild-type E. coli A-1261; assay: MIC against wild-type E. coli A-1261 with or without alkaline phosphatase or esterase (prodrug activation); settings: Escherichia coli
Description: Minimal Inhibitory Concentrations (MICs; mg/L) were determined in cation-adjusted Mueller-Hinton Broth by a microdilution method following the description given in “Methods for Dilution Antimicrobial Susceptibility Tests for Bacteria that grow Aerobically”, Approved standard, 7th ed., Clinical and Laboratory Standards Institute (CLSI) Document M7-A7, Wayne, Pa., USA (2006). The compounds of Examples 4 and 16 were tested against wild-type E. coli A-1261 in the absence of alkaline phosphatase or esterase, in the presence of an alkaline phosphatase, and in the presence of an esterase. The corresponding antibacterial test results are given in Table 2 hereafter (MICs in mg/L).

[2] = system: P. aeruginosa ATCC27853; assay: Bacterial growth minimal inhibitory concentration (microdilution, cation-adjusted Mueller-Hinton Broth); settings: quinolone-sensitive strain; for MIC: Pseudomonas aeruginosa, ATCC27853
Description: (§1) Minimal Inhibitory Concentrations (MICs; mg/L) were determined in cation-adjusted Mueller-Hinton Broth by a microdilution method following the description given in “Methods for Dilution Antimicrobial Susceptibility Tests for Bacteria that grow Aerobically”, Approved standard, 7th ed., Clinical and Laboratory Standards Institute (CLSI) Document M7-A7, Wayne, Pa., USA (2006).
(§2) All Example compounds were tested against several Gram-positive and Gram-negative bacteria. […] K. pneumoniae A-651 is a multiply-resistant strain (in particular quinolone-resistant), while E. coli ATCC25922 and P. aeruginosa ATCC27853 are quinolone-sensitive strains.

[3] = system: K. pneumoniae A-651; assay: as above; settings: multiply-resistant strain (in particular quinolone-resistant); for MIC: Klebsiella pneumoniae, A651
Description: as §1, §2

[4] = system: E. coli ATCC25922; assay: as above; settings: quinolone-sensitive strain; for MIC: Escherichia coli, ATCC25922
Description: as §1, §2

Row | MIC [2] [mg/L] | MIC [3] [mg/L] | MIC [4] [mg/L] | Structure (SMILES) | other results
1 |  |  |  | C[C@@](CCN1Cc2cc(C#CC#C[C@H]3C[C@]3(F)COP(=O)(O)O)sc2C1=O)(C(=O)NO)S(C)(=O)=O [Example 16, ((1R,2R)-1-fluoro-2-((5-((3R)-4-(hydroxyamino)-3-methyl-3-(methylsulfonyl)-4-oxobutyl)-6-oxo-5,6-dihydro-4H-thieno[2,3-c]pyrrol-2-yl)buta-1,3-diyn-1-yl)cyclopropyl)methyl dihydrogen phosphate] | MIC ([1]; alkaline phosphatase 2 i.U./mL, read-out: MIC for E. coli A-1261 In the presence of an alkaline phosphatase (2 i.U./mL)): 0.25 mg/L; MIC ([1]; esterase 10 i.U./mL, read-out: MIC for E. coli A-1261 In the presence of an esterase (10 i.U./mL)): > 8 mg/L; MIC ([1]; no alkaline phosphatase or esterase, read-out: MIC for E. coli A-1261 In the absence of alkaline phosphatase or esterase): > 8 mg/L
2 | 1 (≈ 2.08 µM) | 0.25 (≈ 0.519 µM) | 0.063 (≈ 0.131 µM) | C[C@@](CCN1Cc2cc(C#CC#CC3CN(CCF)C3)sc2C1=O)(C(=O)NO)S(C)(=O)=O [Example 23, (2R)-4-(2-((1-(2-fluoroethyl)azetidin-3-yl)buta-1,3-diyn-1-yl)-6-oxo-4,6-dihydro-5H-thieno[2,3-c]pyrrol-5-yl)-N-hydroxy-2-methyl-2-(methylsulfonyl)butanamide] | 
3 | 1 (≈ 2.09 µM) | 0.5 (≈ 1.05 µM) | 0.25 (≈ 0.523 µM) | CC(C)N1CC(C#CC#Cc2cc3c(s2)C(=O)N(CC[C@](C)(C(=O)NO)S(C)(=O)=O)C3)C1 [Example 24, (R)—N-hydroxy-4-(2-((1-isopropylazetidin-3-yl)buta-1,3-diyn-1-yl)-6-oxo-4,6-dihydro-5H-thieno[2,3-c]pyrrol-5-yl)-2-methyl-2-(methylsulfonyl)butanamide] | 
4 | 1 (≈ 1.97 µM) | 1 (≈ 1.97 µM) | 1 (≈ 1.97 µM) | CC(C)(O)CN1CC(C#CC#Cc2cc3c(s2)C(=O)N(CC[C@](C)(C(=O)NO)S(C)(=O)=O)C3)C1 [Example 25, (2R)—N-hydroxy-4-(2-((1-(2-hydroxy-2-methylpropyl)azetidin-3-yl)buta-1,3-diyn-1-yl)-6-oxo-4,6-dihydro-5H-thieno[2,3-c]pyrrol-5-yl)-2-methyl-2-(methylsulfonyl)butanamide] | 
5 |  |  |  | C[C@@](CCN1Cc2cc(C#Cc3ccc(C4CN(C5COC5)C4)cc3)sc2C1=O)(C(=O)NO)S(C)(=O)=O [Example 26, (2R)—N-hydroxy-2-methyl-2-(methylsulfonyl)-4-(2-((4-(1-(oxetan-3-yl)azetidin-3-yl)phenyl)ethynyl)-6-oxo-4,6-dihydro-H-thieno[2,3-c]pyrrol-5-yl)butanamide] | MIC for P. aeruginosa ATCC27853 [2]: 2 mg/L; MIC for K. Pneumoniae A-651 [3]: 0.25 mg/L; MIC for E. coli ATCC25922 [4]: 0.25 mg/L
6 | 1 (≈ 1.92 µM) | 0.25 (≈ 0.481 µM) | 0.125 (≈ 0.241 µM) | C[C@@](CCN1Cc2cc(C#CC#CC3CN(C4CCOCC4)C3)sc2C1=O)(C(=O)NO)S(C)(=O)=O [Example 27, (2R)—N-hydroxy-2-methyl-2-(methylsulfonyl)-4-(6-oxo-2-((1-(tetrahydro-2H-pyran-4-yl)azetidin-3-yl)buta-1,3-diyn-1-yl)-4,6-dihydro-5H-thieno[2,3-c]pyrrol-5-yl)butanamide] | 
7 | 2 (≈ 3.96 µM) | 0.5 (≈ 0.989 µM) | 0.25 (≈ 0.494 µM) | C[C@@](CCN1Cc2cc(C#CC#CC3CN(CC4COC4)C3)sc2C1=O)(C(=O)NO)S(C)(=O)=O [Example 28, (2R)—N-hydroxy-2-methyl-2-(methylsulfonyl)-4-(2-((1-(oxetan-3-ylmethyl)azetidin-3-yl)buta-1,3-diyn-1-yl)-6-oxo-4,6-dihydro-5H-thieno[2,3-c]pyrrol-5-yl)butanamide] | 
8 |  |  |  | C[C@@](CCN1Cc2cc(C#Cc3ccc(C4CN(C5COC5)C4)cc3)sc2C1=O)(C(=O)NO)S(C)(=O)=O [Example 29, (2R)—N-hydroxy-2-methyl-2-(methylsulfonyl)-4-(2-((4-(1-(oxetan-3-yl)azetidin-3-yl)phenyl)ethynyl)-6-oxo-4,6-dihydro-H-thieno[2,3-c]pyrrol-5-yl)butanamide] | MIC for P. aeruginosa ATCC27853 [2]: 2 mg/L; MIC for K. Pneumoniae A-651 [3]: 1 mg/L; MIC for E. coli ATCC25922 [4]: 0.25 mg/L
9 | 2 (≈ 3.94 µM) | 1 (≈ 1.97 µM) | 0.125 (≈ 0.246 µM) | C[C@@](CCN1Cc2cc(C#CC#C[C@H]3C[C@@H]3CN3CC(F)C3)sc2C1=O)(C(=O)NO)S(C)(=O)=O [Example 30, (2R)-4-(2-(((1S,2S)-2-((3-fluoroazetidin-1-yl)methyl)cyclopropyl)buta-1,3-diyn-1-yl)-6-oxo-4,6-dihydro-5H-thieno[2,3-c]pyrrol-5-yl)-N-hydroxy-2-methyl-2-(methylsulfonyl)butanamide] | 
10 |  |  |  | C[C@@](CCN1Cc2cc(C#CC#CC3CN([C@H]4C[C@@H](O)C4)C3)sc2C1=O)(C(=O)NO)S(C)(=O)=O [Example 31, (2R)—N-hydroxy-4-(2-((1-((1s,3s)-3-hydroxycyclobutyl)azetidin-3-yl)buta-1,3-diyn-1-yl)-6-oxo-4,6-dihydro-5H-thieno[2,3-c]pyrrol-5-yl)-2-methyl-2-(methylsulfonyl)butanamide] | MIC for P. aeruginosa ATCC27853 [2]: 1 mg/L; MIC for K. Pneumoniae A-651 [3]: 0.5 mg/L; MIC for E. coli ATCC25922 [4]: 0.5 mg/L
11 |  |  |  | C[C@@](CCN1Cc2cc(C#CC#CC3CN(C4CC(O)C4)C3)sc2C1=O)(C(=O)NO)S(C)(=O)=O (stereo partly drawn) [Example 32, (2R)—N-hydroxy-4-(2-((1-((1r,3r)-3-hydroxycyclobutyl)azetidin-3-yl)buta-1,3-diyn-1-yl)-6-oxo-4,6-dihydro-5H-thieno[2,3-c]pyrrol-5-yl)-2-methyl-2-(methylsulfonyl)butanamide] | MIC for P. aeruginosa ATCC27853 [2]: 1 mg/L; MIC for K. Pneumoniae A-651 [3]: 0.5 mg/L; MIC for E. coli ATCC25922 [4]: 0.25 mg/L
12 | 2 (≈ 4.25 µM) | 0.5 (≈ 1.06 µM) | 0.125 (≈ 0.266 µM) | C[C@@](CCN1Cc2cc(C#Cc3ccc(CCO)cc3)ccc2C1=O)(C(=O)NO)S(C)(=O)=O [Example 33, (2R)—N-hydroxy-4-(5-((4-(2-hydroxyethyl)phenyl)ethynyl)-1-oxoisoindolin-2-yl)-2-methyl-2-(methylsulfonyl)butanamide] | 
13 |  |  |  | C[C@@](CCN1Cc2cc(C#CC#CC3CN(C(=O)OCCCO)C3)sc2C1=O)(C(=O)NO)S(C)(=O)=O [Example 34, 3-hydroxypropyl (2R)-3-((5-(4-(hydroxyamino)-3-methyl-3-(methylsulfonyl)-4-oxobutyl)-6-oxo-5,6-dihydro-4H-thieno[2,3-c]pyrrol-2-yl)buta-1,3-diyn-1-yl)azetidine-1-carboxylate] | MIC for P. aeruginosa ATCC27853 [2]: 1 mg/L; MIC for K. Pneumoniae A-651 [3]: 0.5 mg/L; MIC for E. coli ATCC25922 [4]: 0.25 mg/L
14 | 1 (≈ 2.09 µM) | 2 (≈ 4.17 µM) | 0.5 (≈ 1.04 µM) | CN1C[C@@H](C#CC#Cc2cc3c(s2)C(=O)N(CC[C@](C)(C(=O)NO)S(C)(=O)=O)C3)[C@@H]1CO [Example 35, (2R)—N-hydroxy-4-(2-(((2R,3R)-2-(hydroxymethyl)-1-methylazetidin-3-yl)buta-1,3-diyn-1-yl)-6-oxo-4,6-dihydro-5H-thieno[2,3-c]pyrrol-5-yl)-2-methyl-2-(methylsulfonyl)butanamide] | 
15 | 1 (≈ 2.03 µM) | 1 (≈ 2.03 µM) | 0.5 (≈ 1.01 µM) | CN1C[C@@H](C#CC#Cc2cc3c(s2)C(=O)N(CC[C@](C)(C(=O)NO)S(C)(=O)=O)C3)C[C@@H]1CO [Example 36, (2R)—N-hydroxy-4-(2-(((3R,5R)-5-(hydroxymethyl)-1-methylpyrrolidin-3-yl)buta-1,3-diyn-1-yl)-6-oxo-4,6-dihydro-5H-thieno[2,3-c]pyrrol-5-yl)-2-methyl-2-(methylsulfonyl)butanamide] | 
16 | 2 (≈ 3.83 µM) | 2 (≈ 3.83 µM) | 1 (≈ 1.92 µM) | C[C@@](CCN1Cc2cc(C#CC#CC3CN(CC4(O)COC4)C3)sc2C1=O)(C(=O)NO)S(C)(=O)=O [Example 39, (2R)—N-hydroxy-4-(2-((1-((3-hydroxyoxetan-3-yl)methyl)azetidin-3-yl)buta-1,3-diyn-1-yl)-6-oxo-4,6-dihydro-5H-thieno[2,3-c]pyrrol-5-yl)-2-methyl-2-(methylsulfonyl)butanamide] | 
17 | 1 (≈ 2.09 µM) | 2 (≈ 4.17 µM) | 0.25 (≈ 0.521 µM) | CN1[C@@H](CO)C[C@@H]1C#CC#Cc1cc2c(s1)C(=O)N(CC[C@](C)(C(=O)NO)S(C)(=O)=O)C2 [Example 40, (2R)—N-hydroxy-4-(2-(((2R,4R)-4-(hydroxymethyl)-1-methylazetidin-2-yl)buta-1,3-diyn-1-yl)-6-oxo-4,6-dihydro-5H-thieno[2,3-c]pyrrol-5-yl)-2-methyl-2-(methylsulfonyl)butanamide] | 
18 | 1 (≈ 2.08 µM) | 0.25 (≈ 0.519 µM) | 0.125 (≈ 0.26 µM) | CN1C[C@H](C#CC#Cc2cc3c(s2)C(=O)N(CC[C@](C)(C(=O)NO)S(C)(=O)=O)C3)[C@H]1CF [Example 41, (2R)-4-(2-(((2S,3S)-2-(fluoromethyl)-1-methylazetidin-3-yl)buta-1,3-diyn-1-yl)-6-oxo-4,6-dihydro-5H-thieno[2,3-c]pyrrol-5-yl)-N-hydroxy-2-methyl-2-(methylsulfonyl)butanamide] | 
19 | 2 (≈ 4.62 µM) | 0.125 (≈ 0.289 µM) | ≤ 0.031 | C[C@@](CCN1Cc2cc(C#Cc3ccccc3)sc2C1=O)(C(=O)NO)S(C)(=O)=O [Example 42, (2R)—N-hydroxy-2-methyl-2-(methylsulfonyl)-4-(6-oxo-2-(phenylethynyl)-4,6-dihydro-5H-thieno[2,3-c]pyrrol-5-yl)butanamide] | 
